Results: US12559492B2, “BRAF degraders” (C4 Therapeutics, Inc., priority 2020, dated 2026)

Molecular target: BRAF^V600E protein (Homo sapiens, UniProt P15056, V600E)
Test: HiBiT cellular BRAF V600E degradation assay
Assay type: cell-based
Details: 24 h incubation; for DC50: A375.10 cells (HiBiT tag knocked in at N-terminal of BRAF V600E), concentration at which 50% of total cellular BRAF V600E is degraded; for Emax: A375.10 cells, Emax = amount of residual protein remaining in the cell after compound treatment, read-out: HiBit 24 h Emax

Chain of BRAF^V600E protein (P15056 whole entry V600E): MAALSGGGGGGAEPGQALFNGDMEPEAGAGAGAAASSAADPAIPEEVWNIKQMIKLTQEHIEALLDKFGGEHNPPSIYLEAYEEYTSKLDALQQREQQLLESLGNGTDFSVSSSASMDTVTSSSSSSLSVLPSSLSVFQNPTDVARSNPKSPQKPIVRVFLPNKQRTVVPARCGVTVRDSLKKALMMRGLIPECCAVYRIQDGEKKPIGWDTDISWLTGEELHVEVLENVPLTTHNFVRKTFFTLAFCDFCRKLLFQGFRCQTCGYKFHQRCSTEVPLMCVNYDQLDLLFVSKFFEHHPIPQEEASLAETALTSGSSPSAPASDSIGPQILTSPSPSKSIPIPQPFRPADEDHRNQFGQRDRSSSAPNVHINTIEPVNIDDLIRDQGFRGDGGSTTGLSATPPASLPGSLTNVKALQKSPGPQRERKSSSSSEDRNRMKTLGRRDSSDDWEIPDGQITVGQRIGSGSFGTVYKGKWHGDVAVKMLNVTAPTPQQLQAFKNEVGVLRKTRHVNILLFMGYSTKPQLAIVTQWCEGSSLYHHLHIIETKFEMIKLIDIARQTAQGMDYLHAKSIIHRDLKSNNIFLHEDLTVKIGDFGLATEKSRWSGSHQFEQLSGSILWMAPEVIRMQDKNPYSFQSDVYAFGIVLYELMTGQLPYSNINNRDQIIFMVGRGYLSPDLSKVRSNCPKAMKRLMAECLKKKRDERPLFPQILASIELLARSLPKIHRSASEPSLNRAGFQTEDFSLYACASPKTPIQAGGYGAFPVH

Row | Structure (SMILES) | DC50 [nM] | Emax [%]
1 | O=C1CCC(Nc2ccc(N3CCC(O)(CC(=O)N4CCN(c5ccc(-c6cnc7[nH]cc(C(=O)c8c(F)ccc(NS(=O)(=O)N9CC[C@@H](F)C9)c8F)c7c6)cc5)CC4)CC3)c(F)c2)C(=O)N1 (stereo partly drawn) [Example 191, (3R)—N-[3-[5-[4-[4-[2-[1-[4-[(2,6-dioxo-3-piperidyl)amino]-2-fluoro-phenyl]-4-hydroxy-4-piperidyl]acetyl]piperazin-1-yl]phenyl]-1H-pyrrolo[2,3-b]pyridine-3-carbonyl]-2,4-difluoro-phenyl]-3-fluoro-pyrrolidine-1-sulfonamide] | 3.89 | 7.76
2 | CCN(C)S(=O)(=O)Nc1ccc(F)c(C(=O)c2c[nH]c3ncc(-c4ccc(N5CCN(C(=O)CC6(O)CCN(c7ccc(NC8CCC(=O)NC8=O)cc7F)CC6)CC5)c(C)c4)cc23)c1F (stereo not drawn) [Example 192, 5-[4-[4-[2-[1-[4-[(2,6-dioxo-3-piperidyl)amino]-2-fluoro-phenyl]-4-hydroxy-4-piperidyl]acetyl]piperazin-1-yl]-3-methyl-phenyl]-3-[3-[[ethyl(methyl)sulfamoyl]amino]-2,6-difluoro-benzoyl]-1H-pyrrolo[2,3-b]pyridine] | 13.9 | 8.18
3 | CCN(C)S(=O)(=O)Nc1ccc(F)c(C(=O)c2c[nH]c3ncc(-c4ccc(N5CCN(C(=O)CC6(O)CCN(c7ccc8c(N9CCC(=O)NC9=O)nn(C)c8c7)CC6)CC5)nc4)cc23)c1F [Example 193, 3-(2,4-dioxohexahydropyrimidin-1-yl)-6-[4-[2-[4-[5-[3-[3-[[ethyl(methyl)sulfamoyl]amino]-2,6-difluoro-benzoyl]-1H-pyrrolo[2,3-b]pyridin-5-yl]-2-pyridyl]piperazin-1-yl]-2-oxo-ethyl]-4-hydroxy-1-piperidyl]-1-methyl-indazole] | 1.7 | 7.39
4 | CCN(C)S(=O)(=O)Nc1ccc(F)c(C(=O)c2c[nH]c3ncc(-c4cnc(N5CCN(C(=O)CC6(O)CCN(c7ccc(N8CCC(=O)NC8=O)cc7F)CC6)CC5)c(F)c4)cc23)c1F [Example 194, 5-[6-[4-[2-[1-[4-(2,4-dioxohexahydropyrimidin-1-yl)-2-fluoro-phenyl]-4-hydroxy-4-piperidyl]acetyl]piperazin-1-yl]-5-fluoro-3-pyridyl]-3-[3-[[ethyl(methyl)sulfamoyl]amino]-2,6-difluoro-benzoyl]-1H-pyrrolo[2,3-b]pyridine] | 4.5 | 8.29
5 | CCN(C)S(=O)(=O)Nc1ccc(F)c(C(=O)c2c[nH]c3ncc(-c4cc(F)c(N5CCN(C(=O)CC6(O)CCN(c7ccc(NC8CCC(=O)NC8=O)cc7F)CC6)CC5)c(F)c4)cc23)c1F (stereo not drawn) [Example 195, 5-[4-[4-[2-[1-[4-[(2,6-dioxo-3-piperidyl)amino]-2-fluoro-phenyl]-4-hydroxy-4-piperidyl]acetyl]piperazin-1-yl]-3,5-difluoro-phenyl]-3-[3-[[ethyl(methyl)sulfamoyl]amino]-2,6-difluoro-benzoyl]-1H-pyrrolo[2,3-b]pyridine] | 6.23 | 7.6
6 | CCN(C)S(=O)(=O)Nc1ccc(F)c(C(=O)c2c[nH]c3ncc(-c4cnc(N5CC6(C5)CC(O)(C5CCN(c7ccc(NC8CCC(=O)NC8=O)cc7F)CC5)C6)nc4)cc23)c1F (stereo not drawn) [Example 196, 5-[2-[6-[1-[4-[(2,6-dioxo-3-piperidyl)amino]-2-fluoro-phenyl]-4-piperidyl]-6-hydroxy-2-azaspiro[3.3]heptan-2-yl]pyrimidin-5-yl]-3-[3-[[ethyl(methyl)sulfamoyl]amino]-2,6-difluoro-benzoyl]-1H-pyrrolo[2,3-b]pyridine] | 1.14 | 6.81
7 | CCN(C)S(=O)(=O)Nc1ccc(F)c(C(=O)c2c[nH]c3ncc(-c4ccc(N5CCN(C(=O)CC6(O)CCN(c7ccc(NC8CCC(=O)NC8=O)cc7C(F)F)CC6)CC5)nc4)cc23)c1F (stereo not drawn) [Example 197, 5-[6-[4-[2-[1-[2-(difluoromethyl)-4-[(2,6-dioxo-3-piperidyl)amino]phenyl]-4-hydroxy-4-piperidyl]acetyl]piperazin-1-yl]-3-pyridyl]-3-[3-[[ethyl(methyl)sulfamoyl]amino]-2,6-difluoro-benzoyl]-1H-pyrrolo[2,3-b]pyridine] | 7.36 | 8.11
8 | CCN(C)S(=O)(=O)Nc1ccc(F)c(C(=O)c2c[nH]c3ncc(-c4ccc(N5CCN(C(=O)CC6(O)CCN(c7ccc(NC8CCC(=O)NC8=O)cc7F)CC6)CC5)c(F)c4)cc23)c1F (stereo not drawn) [Example 198, 5-[4-[4-[2-[1-[4-[(2,6-dioxo-3-piperidyl)amino]-2-fluoro-phenyl]-4-hydroxy-4-piperidyl]acetyl]piperazin-1-yl]-3-fluoro-phenyl]-3-[3-[[ethyl(methyl)sulfamoyl]amino]-2,6-difluoro-benzoyl]-1H-pyrrolo[2,3-b]pyridine] | 2.42 | 6.19
9 | CCN(C)S(=O)(=O)Nc1ccc(F)c(C(=O)c2c[nH]c3ncc(-c4cnc(N5CC6(CC(C7CCN(c8ccc(NC9CCC(=O)NC9=O)cc8F)CC7)C6)C5)nc4)cc23)c1F (stereo not drawn) [Example 199, 5-[2-[6-[1-[4-[(2,6-dioxo-3-piperidyl)amino]-2-fluoro-phenyl]-4-piperidyl]-2-azaspiro[3.3]heptan-2-yl]pyrimidin-5-yl]-3-[3-[[ethyl(methyl)sulfamoyl]amino]-2,6-difluoro-benzoyl]-1H-pyrrolo[2,3-b]pyridine] | 28.3 | 7.17
10 | CCN(C)S(=O)(=O)Nc1ccc(Cl)c(C(=O)c2c[nH]c3ncc(-c4ccc(N5CCN(C(=O)CC6(O)CCN(c7ccc(NC8CCC(=O)NC8=O)cc7F)CC6)CC5)nc4)cc23)c1F (stereo not drawn) [Example 201, 3-[6-chloro-3-[[ethyl(methyl)sulfamoyl]amino]-2-fluoro-benzoyl]-5-[6-[4-[2-[1-[4-[(2,6-dioxo-3-piperidyl)amino]-2-fluoro-phenyl]-4-hydroxy-4-piperidyl]acetyl]piperazin-1-yl]-3-pyridyl]-1H-pyrrolo[2,3-b]pyridine] | 4.19 | 6.67
11 | CCN(C)S(=O)(=O)Nc1ccc(F)c(C(=O)c2c[nH]c3ncc(-c4ccc(N5CCN(C(=O)CC6(O)CCN(c7ccc8c(N9CCC(=O)NC9=O)nn(C)c8c7)CC6)CC5)cc4)cc23)c1F [Example 202, 3-(2,4-dioxohexahydropyrimidin-1-yl)-6-[4-[2-[4-[4-[3-[3-[[ethyl(methyl)sulfamoyl]amino]-2,6-difluoro-benzoyl]-1H-pyrrolo[2,3-b]pyridin-5-yl]phenyl]piperazin-1-yl]-2-oxo-ethyl]-4-hydroxy-1-piperidyl]-1-methyl-indazole] | 2.1 | 7.44
12 | CCN(C)S(=O)(=O)Nc1ccc(F)c(C(=O)c2c[nH]c3ncc(-c4cnc(N5CC6(C5)CN(C5CCN(c7ccc(NC8CCC(=O)NC8=O)cc7F)CC5)C6)nc4)cc23)c1F (stereo not drawn) [Example 203, 5-[2-[2-[1-[4-[(2,6-dioxo-3-piperidyl)amino]-2-fluoro-phenyl]-4-piperidyl]-2,6-diazaspiro[3.3]heptan-6-yl]pyrimidin-5-yl]-3-[3-[[ethyl(methyl)sulfamoyl]amino]-2,6-difluoro-benzoyl]-1H-pyrrolo[2,3-b]pyridine] | 2.28 | 5.13
